In ChEMBL document CHEMBL3507680, “University of Dundee, Gates Library screen for HepG2 cell viability” one finds cytotoxicity data, which are given here for 34 compounds.

The nature of this series: Human HepG2 cell viability assay in 384 well format. The settings on record: HepG2 cells, read-out: Inhibition. On the set-up: dose 125 nL, time 70.5 hour; concentration not given beside the values. The class given is toxicity, cell-based.
On to `COCC(=O)N1Cc2nccn2CC(Cn2ncccc2=O)C1` (centres undefined), for which the cytotoxicity at 70.5 h was -10%.
In the case of `Cc1noc(C)c1CN1CCC2(CC1)NC(=O)CC2c1cnn(C)c1` (centres undefined) it was -8.52%; in that of `O=C(c1ccc[nH]1)N1CCN(Cc2ccncc2)c2ncccc2C1`, -11.6%; in that of `O=C(c1ccco1)N1Cc2nccn2CC(Cn2ncccc2=O)C1` (centres undefined), -6.66%.
For `O=C(c1ccoc1)N1CCc2ncc(Cn3cccn3)n2CC1`, the cytotoxicity at 70.5 h was -7.98%.
As to `Cn1cc(C2CC(=O)NC23CCN(Cc2nccs2)CC3)cn1` (centres undefined), the cytotoxicity at 70.5 h is -9.24%.
With `COCC(=O)N1CC[C@H]2C[C@H](c3nnc(C4CC4)o3)O[C@@H]2C1`, the cytotoxicity at 70.5 h was -8.34%.
For `Cc1ccc(C(=O)N2CCc3ncc(Cn4cccn4)n3CC2)cn1`, the cytotoxicity at 70.5 h was -6.29%.
As for `CC(C)CO[C@@H]1CC[C@H]2[C@H]1OCCN2S(=O)(=O)C1CC1`, the cytotoxicity at 70.5 h amounted to 12.4%.
As for `NC(=O)N1Cc2nccn2CC(Cn2ncccc2=O)C1` (centres undefined), the figure is 1.65%; as for `O=C(N1CCCC1)N1Cc2nccn2CC(Cn2ncccc2=O)C1` (centres undefined), -0.168%.
In the case of `c1cnc(NC[C@H]2OC[C@@H]3CCN(Cc4ccncc4)C[C@@H]32)nc1`, the cytotoxicity at 70.5 h was 17.4%.
Turning to `CN(Cc1cccnc1)[C@@H]1CN(c2ccccn2)[C@@H]2CCCO[C@H]12`, the cytotoxicity at 70.5 h is -9.04%.
`CNC(=O)[C@H]1C[C@@H]2CN(C(=O)c3occc3C)C[C@@H]2N1S(C)(=O)=O`: the cytotoxicity at 70.5 h is -5.67%.
For the compound `Cc1ccc(N2CCc3c(CN(C)Cc4ccco4)cncc3C2)nn1`, the cytotoxicity at 70.5 h was -9.85%.
With `Cc1cccc(CN2CCC3(CC2)NC(=O)C[C@H]3c2cnn(C)c2)n1`, the cytotoxicity at 70.5 h was -8.35%.
As for `Cc1ccc(N2CC[C@H]3C[C@H](C(=O)NCc4ccco4)O[C@H]3C2)nn1`, the figure is -11.1%.
Regarding `N#Cc1ccc(N2CCCC3(CCN(c4cccnc4)CC3)C2)cc1`, the cytotoxicity at 70.5 h came to 51.2%.
In the case of `CNC(=O)[C@H]1CO[C@H]2CCN(c3ncc(F)cn3)C[C@H]2C1`, the cytotoxicity at 70.5 h is -8.64%.
With `Cn1cc(C2CC(=O)NC23CCN(C(=O)Cc2ccccn2)CC3)cn1` (centres undefined), the cytotoxicity at 70.5 h was -5.18%.
On to `O=C(CC1CC1)N1CCO[C@H]2[C@H](OCCCn3cccn3)CC[C@@H]21`, for which the cytotoxicity at 70.5 h is -4.17%.
In the case of `CN(C)C(=O)[C@H]1CO[C@H]2CCN(c3ncc(F)cn3)C[C@H]2C1`, the cytotoxicity at 70.5 h is -8.69%.
With `O=C(NCc1ccco1)[C@H]1C[C@@H]2CCN(c3ncccn3)C[C@H]2O1`, the cytotoxicity at 70.5 h is -5.11%.
As for `O=C(Nc1cnccn1)[C@H]1CO[C@H]2CCN(c3ncc(F)cn3)C[C@H]2C1`, the cytotoxicity at 70.5 h came out at 15%.
As for `Cc1ccc(N2CC[C@H]3C[C@H](C(=O)NCc4ccco4)O[C@@H]3C2)cc1`, the figure is 2.5%; as for `CCC(=O)N1CCC2(CC1)CN(CCO)Cc1ccccc12`, 1.97%.
For the compound `Cc1nc2c(cc1C(=O)O)CCN(Cc1ccsc1)CC2`, the cytotoxicity at 70.5 h is -6.12%.
For the compound `CNC(=O)[C@H]1C[C@@H]2CCN(Cc3ccncc3)C[C@H]2O1`, the cytotoxicity at 70.5 h is -6.07%.
In the case of `COCCNC(=O)[C@H]1C[C@@H]2CCN(Cc3ccncc3)C[C@H]2O1` it was -9.09%; in that of `c1cncc(N2CCCC3(CCN(CCN4CCCC4)CC3)C2)c1`, -1.3%.
Turning to `c1cnn(CCCO[C@@H]2CN(C3CCOCC3)[C@@H]3CCCO[C@@H]32)c1`, the cytotoxicity at 70.5 h turned out to be 4.39%.
As for `O=C(Nc1cccnc1)[C@H]1CO[C@H]2CCNC[C@H]2C1`, the cytotoxicity at 70.5 h was found to be 0.847%.
In the case of `c1cnc(NC[C@H]2OC[C@@H]3CCN(Cc4ccsc4)C[C@@H]32)nc1` it was -6.36%.
Take `Cc1cccc(CN2CC[C@@H]3[C@@H](CO[C@H]3CNc3ncccn3)C2)n1`: the cytotoxicity at 70.5 h is -8.04%.
